Here are results for 2 compounds from US20250120971A1, “NOVEL DRUG TREATMENT OF COGNITIVE IMPAIRMENTS ASSOCIATED WITH SCHIZOPHRENIA” (FLORIDA ATLANTIC UNIVERSITY BOARD OF TRUSTEES, priority 2021, published 2025).

Experiment [1] concerns rat model of repeated stress. The settings on record: cited from earlier work.
The test system of experiment [2] is KET mouse model of psychosis. Briefly: Object recognition memory task after intrahippocampal (CA1) microinfusion. The settings on record: KET mice; CyPPA 1 μg/μl bilateral intra-CA1 pre-sample; test 24 h later. It counts as in vivo.
For experiment [3], the system named is KET mouse model of psychosis or schizophrenia-like behavior. Kind of experiment: Object recognition memory task after systemic (IP) SK channel activator. To be noted: for discrimination ratio score, test session (Mdn): CyPPA 15.0 mg/kg IP 30 min pre-sample. It counts as in vivo, mouse (male C57BL/6J). On the procedure:
SK Drug Administration. To test the effect of the SK2 specific activator, CyPPA on long-term memory for objects, two KET groups and two SAL groups of male C57BL/6J mice were randomly assigned to receive either VEH or CyPPA (15.0 mg/kg) IP 30 min prior to the sample session of an object recognition memory task. Separate groups received CyPPA (7.5 mg/kg) IP or VEH 30 min prior to the sample session.
Arena Habituation. Mice were habituated to the arena prior to testing recognition memory. Thirty minutes prior to each arena habituation (AH) session, each mouse was restrained gently and momentarily, given a mock IP injection with a 26-gauge needle, and then placed into an empty polycarbonate cage. […] Afterwards, each mouse was returned to the polycarbonate cage and then returned to its home cage. Activity was recorded and automatically scored using Noldus Ethovision XT (version 7.0). Distance traveled was defined as the sum of recorded movement of the center point of the mouse in cm over the duration of the trial. Movement data from the AH sessions was used to match future treatment groups.
Sample Session. To examine the efficacy of activating SK channels on hippocampal long-term memory in the KET model of schizophrenia or psychosis-like cognitive deficits, an SK channel activator or vehicle (VEH, i.e., placebo) was administered to cohorts of saline (SAL) control mice or ketamine (KET)-exposed mice prior to the sample session of an object recognition task. Ten days after the final SAL or KET injection, mice received an IP injection of a SK channel activator or VEH, and then were placed individually in polycarbonate holding cages. Following a delay, the mouse was placed individually into the familiar arena for 10 min. Mice were permitted to freely explore two identical novel objects that were placed in opposite corners within the arena. […] The arena and objects were wiped down with 70% ethanol before each session to eliminate any odor cues that were present. Object exploration was defined as time (in s) that the mouse spent with its head oriented toward and within 2-3 cm of the object. The sample session ended after 10 min; at which time the mouse was returned to its home cage. Sample session behavior was video tracked via Ethovision XT and recordings were analyzed off-line to determine object exploration times for each mouse.
Test Session. Twenty-four hours following the sample session, mice were placed in a polycarbonate cage and then given a 10-min test session in the same arena as the sample session. Each mouse received a needle prick to simulate an IP injection before being placed in the polycarbonate holding cage for 30 min. For the test session, one of the previously encountered objects was replaced with a novel one (e.g., A, B, or C), as described above. To avoid place preference confounding behavioral responses, the objects were randomly replaced for the test session. The arena and objects were wiped down with 70% ethanol before each session to eliminate any odor cues that might affect behavioral responses during the test session.
Statistical Analysis. Object exploration was determined for each mouse based on the manual scoring of behavior from the recorded video files of the sample and test sessions. Scoring was done by experimenters who were blind to the treatment and group of the mice. Object memory was inferred from discrimination ratio scores, calculated for each mouse as the difference in time spent exploring the novel object minus the time spent exploring the familiar object, divided by the total time spent exploring both test objects (TNovel object−TFamiliar object/TNovel object+TFamiliar object). Discrimination ratio scores range from 1 to −1, with ratios greater than zero indicating preferential exploration of the novel object, and ratios less than zero indicating preferential exploration of the familiar object.

Experiment [4] concerns KET mouse model of psychosis. Briefly: Trace fear conditioning and tone test. Type of experiment: in vivo. To be noted: for discrimination ratio of % freezing (trace vs CS intervals) (Mdn): CyPPA 15.0 mg/kg IP 30 min before trace fear conditioning. As to the method:
Systemic Administration of the SK2 Activator. Two groups of KET mice and two groups of SAL mice were randomly assigned to receive either VEH or CyPPA (15.0 mg/kg) IP 30 min prior to a trace fear conditioning session.
Trace fear conditioning was performed using a MED Associates Near-Infrared Video Fear Conditioning System (Georgia, VT) composed of four identical rectangular conditioning chambers (30.5 cm by 24.1 cm by 21 cm) constructed of brushed aluminum side walls and clear Plexiglas front, back and top walls. Each chamber was illuminated by an overhead white house light and an infrared light. An audio speaker attached to the right-side wall of each chamber delivered the tone stimuli. The chamber floor was constructed of parallel stainless-steel rods (36 rods, 3.2 mm dia, 7.9 mm apart) designed for mice, and connected to a scrambled shock generator. Each conditioning chamber was housed inside a larger sound-attenuating cabinet with a ventilation fan in the right-side wall used to provide background noise. A near-infrared FireWire video camera, mounted on the left front door of each noise-attenuating cabinet, was used to acquire mouse behavior. Before each trial, the chamber floors were cleaned thoroughly with a 70% ethanol solution, then with 1% LiquiNox (White Plains, New York) to reduce olfactory cues.
Freezing responses were recorded and automatically scored during the conditioning session to assess the strength of fear memory. The automatic software program operationally defined freezing as the duration of time, greater than 0.6 s, during which fewer than 20 pixels of each video frame were detected to have changed. […] All final freezing responses were hand scored to ensure accuracy.
Trace Fear Conditioning Session. Mice received a systemic injection of CyPPA or VEH and then were placed individually into empty holding cages. Thirty min later, mice were placed individually into a distinct conditioning chamber with an odor cue. […] (FIG. 4A). Mice were removed from the chamber 60 s. after the presentation of the 8th US.
Trace Fear Memory Tone Test. To assess retention of trace fear memory after a 24-hour delay, mice received a mock IP injection before being placed in the polycarbonate cage. After 30 min, mice were placed into modified conditioning chambers and after a 60 s. delay, were presented with the identical tone CS as in the conditioning session. […] Mice were removed 30 s. after termination of the last CS. The context of chamber was modified before the tone test by installing an inverted V-shaped Plexiglas insert to change the geometry of the side walls and ceiling, a floor shield, 1% acetic acid, and lighting filter.
Statistical Analysis. […] To examine whether KET differentially influenced the perception of the aversive foot shock stimulus, an activity burst ratio was computed for each mouse by dividing the motion score for the first shock interval, 1 s, +1 s. post shock by the motion score for a 2-s interval from the initial 60 s. of the conditioning session (Mean shock/mean no shock). A two-factor (group, treatment) ANOVA, or one-way if not normally distributed, was conducted to analyze treatment differences in the mean activity burst.
Trace fear conditioning involves the imposition of a temporal gap between the termination of the CS and the onset of the aversive US stimulus. […] The strength and accuracy of this temporally guided fear memory can then be assessed during a test session, often presented 24 hours after trace conditioning. […]

“Also recorded” adds a separate entry of the source.

As to `CCn1c(=O)[nH]c2ccccc21` [1-EBIO], the “fear memory impairments” value in experiment [1] was “alleviated fear memory impairments”.

In the case of `Cc1cc(NC2CCCCC2)nc(-n2nc(C)cc2C)n1` [CyPPA], in experiment [2], the “discrimination ratio score, test session (M)” value stood at 0.354. For the same compound, the “discrimination ratio, test session (Mdn)” value in experiment [2] was 0.398; in experiment [3] (KET mice, CyPPA 7.5 mg/kg IP 30 min pre-sample, test 24 h later), 0.079. Further, in experiment [2], the “object recognition memory vs KET/VEH” value is “improved object recognition memory; also recorded: partial, albeit significant, rescue of object recognition memory”. For the same compound, the “object recognition memory vs KET mice given VEH” value in experiment [3] (KET mice, CyPPA 7.5 mg/kg IP pre-sample, test 24 h later) is “no rescue of KET-induced impaired object memory”; in experiment [3] (KET mice, CyPPA 15.0 mg/kg IP pre-sample, test 24 h later), “rescued object recognition memory; also recorded: performed significantly better than VEH-treated KET mice; also recorded: significantly better object recognition memory performance”. Also, the “discrimination ratio score, test session (Mdn)” value in experiment [3] (KET mice, test 24 h later) amounted to 0.191; in experiment [3] (SAL control mice, test 24 h later) it was 0.381. The “object memory vs SAL mice given VEH” value in experiment [3] (SAL control mice, CyPPA 15.0 mg/kg IP pre-sample) was “impaired object memory; also recorded: impaired the encoding and or consolidation of object memory”. In experiment [4] (KET mice given CyPPA vs KET mice given VEH), the “performance during the tone test (retrieval) as stated in the Conclusions” value is “performed equivalently to KET mice given VEH”. For the same compound, the “discrimination ratio of % freezing (trace vs CS intervals) (Mdn)” value came to 0.21 in experiment [4] (KET mice) and 0.13 in experiment [4] (SAL mice). The “temporal memory / attention in trace fear conditioning vs KET mice given VEH” value in experiment [4] (KET mice, CyPPA 15.0 mg/kg IP 30 min pre-conditioning) is “rescue of the attention or learning deficit; also recorded: significantly better than that of VEH-treated KET mice; also recorded: rescued temporal memory and attention”. For the same compound, in experiment [4] (SAL mice, CyPPA 15.0 mg/kg IP pre-conditioning), the “conditioned freezing response vs SAL mice given VEH” value is on record as “impaired acquisition of the conditioned freezing response; also recorded: exhibited impaired freezing compared to SAL mice given VEH”. The “fear memory impairments” value in experiment [1] is on record as “alleviated fear memory impairments”.
